The conditions of data set [1]: 6 days after infection; vs vehicle.
The test system of data set [2] is liver inflammation, aortic atherosclerosis. To be noted: rodent model; reported in literature; cited from earlier work.
Data set [3] concerns serum inflammatory cytokines. The settings on record: rodent model; reported in literature; cited from earlier work.

As for `CCCCCCCCCCCCCCCC(=O)N[C@@H](CCC(=O)NCCCC[C@H](NC(=O)[C@H](C)NC(=O)[C@H](C)NC(=O)[C@H](CCC(N)=O)NC(=O)CNC(=O)[C@H](CCC(=O)O)NC(=O)[C@H](CC(C)C)NC(=O)[C@H](Cc1ccc(O)cc1)NC(=O)[C@H](CO)NC(=O)[C@H](CO)NC(=O)[C@@H](NC(=O)[C@H](CC(=O)O)NC(=O)[C@H](CO)NC(=O)[C@@H](NC(=O)[C@H](Cc1ccccc1)NC(=O)[C@@H](NC(=O)CNC(=O)[C@H](CCC(=O)O)NC(=O)[C@H](C)NC(=O)[C@@H](N)Cc1cnc[nH]1)[C@@H](C)O)[C@@H](C)O)C(C)C)C(=O)N[C@@H](CCC(=O)O)C(=O)N[C@@H](Cc1ccccc1)C(=O)N[C@H](C(=O)N[C@@H](C)C(=O)N[C@@H](Cc1c[nH]c2ccccc12)C(=O)N[C@@H](CC(C)C)C(=O)N[C@H](C(=O)N[C@@H](CCCNC(=N)N)C(=O)NCC(=O)N[C@@H](CCCNC(=N)N)C(=O)NCC(=O)O)C(C)C)[C@@H](C)CC)C(=O)O` [GLP-1R agonist, liraglutide], in data set [1], the plasma glucose levels result was “no statistically significant changes” and the plasma insulin levels result is “no statistically significant changes”.

Regarding exendin-4, in data set [2], the aortic atherosclerosis entry was “reduced” and the liver inflammation result is given as “reduced”. Further, the “serum inflammatory cytokines during LPS-induced endotoxemia” value in data set [3] is given as “reduced”.

The values above are taken from patent US11666636B2, “GLP-1R agonists and uses thereof” (priority 2017, dated 2023).
